Consider four compounds from patent publication US6500936B2, “Pluraflavins and derivatives thereof, process for their preparation and use thereof” (priority 2000, dated 2002).

By IC50 is commonly meant the concentration that gives 50% inhibition.

Where “and” joins values, the source holds several entries; their conditions need not be identical. Equal entries are not always repeated. Where two headings read alike, the source gives them in different places.

Data set [1] in a line: Chemical stability by medium / pH.
In data set [2] the test system is rat hepatoma cells ATCC CRL-1548. The experiment in a line: Cytostatic activity on rat hepatoma cells (Cell Titer 96 Aqueous). The class given is cell-based. To be noted: read-out: IC50 (cytostatic effect). How it is done: (a) To determine the cytostatic activity, rat hepatoma cells were used which were obtained from the strain collection American Type Culture Collection under the number ATCC CRL-1548, Jo No.223 and 228 The strain was kept in the “MEM (EAGLE) with Glutamax” medium [GIBCO BRL No.4109-028] with 10% fetal calf serum [GIBCO BRL No. 10270-106] and 10 μl of penicillin-streptomycin [GIBCO BRL No. 15140-114]/ml. 96-well microtiterplates [Greiner, No. 15140-114] were used. Each well was initially charged with 140 μl of culturing nutrient solution and in each case inoculated with 215,000 cells. The plates were then incubated at 37° C. and 5% CO2 for 20-24 hours. A dilution series of pluraflavins with concentrations of 100, 50, 25, 12.5, 6.25, 3.125, 1.5625, 0.7813, 0.3906, 0.195, 0.094, 0.047 and 0 μM, which had been prepared beforehand, was then pipetted in the corresponding order. After a further incubation time of 22 hours at 37° C. in an atmosphere of 5% CO2, the liquid medium was then aspirated. The cells that remained were stained with 100 μl of RPMI 1640 [GIBCO BRL No. 32404-014]/well and 20 μl of Cell Titer 96 Aqueous [PROMEGA No. G5430]/well. Light absorption at 590 nm was measured directly after addition and after 2 hours of incubation, as above. The cytostatic effect was calculated from the change in light absorption.

Data set [3] in a line: Solubility (appearance description).
The next data set deals with Lung tumor cell line. The data set can be described thus: MTT antiproliferation assay, lung tumor cells. Type of data set: cell-based. The source says: (§1) MTT, a water soluble tetrazolium salt, is converted to an insoluble purple formazan when dissolved by cleavage of the tetrazolium ring by dehydrogenase enzymes in active mitochondria. […] This method was used to quantitate proliferation in order to determine activity of potential chemotherapeutic compounds.
(§2) All cells were maintained in RPMI 1640 (Life Technologies, Gaithersburg, Mdi) containing 10% heat-inactivated Fetal Bovine Serum, penicillin /streptomycin and supplemented with L-glutamine.
(§3) Cells were plated in 96-well tissue culture plates at the following densities:
(§4) Cells were allowed to adhere overnight at 37° C., 5% CO2.
(§5) The cells were washed with fresh media and the compounds added to the cells in a final volume of 100 μl. The cells plus compound were allowed to incubate at 37° C., 5% CO2 for approximately 72 hours.
(§6) At the desired time point, 25 μl of MTT (10 mg/ml in HBSS) were added to each well. Plates were incubated at 37° C. for 2-4 hours. MTT and media were removed and 200 μl DMSO were added per well. Readings were taken at 570 nm.
For orientation: Tetrazolium assays rely on reduction of a dye to a coloured formazan, in cell work by metabolically active cells.

Another data set has as its system Breast tumor cell line. The experiment in a line: MTT antiproliferation assay, breast tumor cells. Type of data set: cell-based.
Excerpt: as §1, §2, §3, §4, §5, §6

For another data set, the system named is Prostate tumor cell line. The data set can be described thus: MTT antiproliferation assay, prostate tumor cells. The class given is cell-based.
Excerpt: as §1, §2, §3, §4, §5, §6

For a further data set, the system named is leukemia cells. The data set can be described thus: Soft agar assay against leukemia cells. The class given is cell-based.
For a further data set, the system named is Colon tumor cell line. The data set can be described thus: MTT antiproliferation assay, colon tumor cells. Type of data set: cell-based.
Excerpt: as §1, §2, §3, §4, §5, §6

As to `CC1OC(OC2C(C)OC(c3ccc4c(c3O)C(=O)c3c(cc(COC5CC(C)(N)C(O)C(C)O5)c5c(=O)cc(C(C)(O)C(C)O)oc35)C4=O)CC2N(C)C)CC(O)C1O` (stereo not drawn) [pluraflavin B], in data set [1], the “stability in the alkaline range” value was “unstable”; the “stability in neutral and mildly acidic medium” value was “stable”. For the same compound, the IC50 in data set [2] (rat hepatoma cells, 22 hours incubation) was less than 0.05 µM. Also, in data set [3], the “solubility in polar organic solvents” value is “soluble” and the solubility in water entry is listed as “only sparingly soluble”.

Turning to `CN1CC[C@H](c2c(O)cc(O)c3c(=O)cc(-c4ccccc4Cl)oc23)[C@H](O)C1` [flavopiridol, reference compound], the IC50 in the data set with Lung tumor cell line (Lung cells, MTT, approximately 72 hours, read-out: IC50) is 0.09 µM; in the data set with Breast tumor cell line (Breast cells, MTT, approximately 72 hours, read-out: IC50), 0.09 µM; in the data set with Prostate tumor cell line (Prostate cells, MTT, approximately 72 hours, read-out: IC50) it was 0.08 µM; with leukemia cells (soft agar assay, leukemia cells, read-out: IC50) it was 0.5 µM and 0.6 µM; in the data set on Colon tumor cell line (Colon cells, MTT, approximately 72 hours, read-out: IC50) it was 0.03 µM.

With `CC1OC(OC2C(C)OC(c3ccc4c(c3O)C(=O)c3c(cc(COC5CC(C)(N)C(O)C(C)O5)c5c(=O)cc(C6(C)OC6C)oc35)C4=O)CC2N(C)C)CC(O)C1O` (stereo not drawn) [pluraflavin A], the “stability in the alkaline range” value in data set [1] is “unstable”. Also, the “stability in neutral and mildly acidic medium” value in data set [1] is “stable”. In data set [1], the “stability in the strongly acidic range” value is reported as “unstable”. In addition, the half-maximal inhibitory concentration (IC50) is 0.003 µM in the data set with Lung tumor cell line (72 h); less than 0.023 µM with Breast tumor cell line (72 h); 0.01 µM in the data set with Prostate tumor cell line (72 h); 0.06 µM with leukemia cells; 0.00035 µM in the data set with Colon tumor cell line (72 h); less than 0.05 µM in data set [2] (Rattus norvegicus, 22 h).

`CC1OC(OC2C(C)OC(c3ccc4c(c3O)C(=O)c3c(cc(C(=O)O)c5c(=O)cc(C(C)(O)C(C)O)oc35)C4=O)CC2N(C)C)CC(O)C1O` (stereo not drawn) [pluraflavin E]: in data set [1], the “stability in the alkaline range” value is on record as “unstable”; the “stability in neutral and mildly acidic medium” value is “stable”; the “stability in the strongly acidic range” value is recorded as “unstable”. Moreover, in data set [3], the “solubility in polar organic solvents” value is on record as “soluble” and the solubility in water result was “only sparingly soluble”.
